Experimental data published in patent US20090165150A1, “DIRECTED COMPLEMENTATION WITH REMOVABLE GENE OF INTEREST” (priority 2007, published 2009).

Experiments:
BHc tumors = experiment: Xenograft of archived BHc tumor in NCR nude mice maintained on doxycycline; type: in vivo, mouse; conditions: 5 mice bearing BHc tumors, Tamoxifen IP for 8 consecutive days
Procedure: (§1) Tamoxifen treatment: To activate CreER^T2 and induce Cre mediated recombination (i.e., excision) between loxP sites, animals were treated with 0.1 ml tamoxifen (10 mg/ml in corn oil) through intraperitoneal (IP) injection for […].
(§2) About 0.1 million DC tumor cells were injected subcutaneously into 10 NCR nude mice on the right flank. These mice were maintained off doxycycline. Similarly 10 NCR nude mice were inoculated with archived BHc tumor and maintained on doxycycline. These mice were divided into 4 groups.
The second group contained of 5 mice bearing BHc tumors. They were treated with Tamoxifen for 8 consecutive days.

DC tumors = experiment: Xenograft of DC tumor cells (pL-Her2^YVMA complemented) in NCR nude mice maintained off doxycycline; type: in vivo, mouse; conditions: 5 mice bearing DC tumors, Tamoxifen IP for 8 consecutive days, observed up to a month, untreated group had tumors within 10 days
Procedure: Minced DC tumor was thawed at 37° C. and cells were dissociated by passing through cell strainers (100 μm filters, BD Falcon Cat. No. 352360). The cells were collected and centrifuged at 1000 rpm for 5 minutes, washed twice with PBS and counted using hemocytometer and resuspended in one part PBS (Gibco Cat. No. 24020-117) to one part Matrigel (BD Cat. No. 3542334) for injections.
as §1, §2
The fourth group contained of 5 mice bearing DC tumors. They were treated with Tamoxifen for 8 consecutive days.

SMILES: CC/C(=C(\c1ccccc1)c1ccc(OCCN(C)C)cc1)c1ccccc1 [Tamoxifen, tamoxifen]
- tumor growth compared with untreated group (BHc tumors): grew slower than group 1
- time until tumors were observed (BHc tumors; all 5 mice, untreated group within 10 days): ≤ 12 days
- tumor formation (DC tumors): Tumors were never observed
